According to patent US20230285397A1, “EGFR INHIBITOR” (TAIHO PHARMACEUTICAL CO., LTD., priority 2020, published 2023):

Tests used:
[1] = Evaluation of brain penetration properties; assay type: in vivo; details: BALB/cA mice, oral, 50 mg/kg/day, 0.5 hours
Procedure: The compound of the present invention was suspended or dissolved in 0.5% HPMC aqueous solution and 0.1 N hydrochloric acid, and the obtained suspension or solution was orally administered to BALB/cA mice (CLEA Japan, Inc.) at a dose of 50 mg/kg/day. At 0.5 hours after completion of the oral administration, blood was collected from the facial vein, and whole brain was then excised, so as to obtain plasma and brain samples. Water was added to the obtained brain sample in 3 times the volume of the brain sample, and the resultant was then homogenized using an ultrasonic homogenizer, so as to obtain a brain homogenate. The concentration of the compound in the obtained plasma and brain homogenate was measured by LC-MS/MS, and the brain penetration properties of the present compound were evaluated from the brain/plasma concentration of the compound.

[2] = Evaluation of oral absorbability; assay type: in vivo; details: BALB/cA mice, 50 mg/kg/day
Procedure: The compound of the present invention was suspended or dissolved in 0.5% HPMC aqueous solution and 0.1 N hydrochloric acid, and the obtained suspension or solution was orally administered to BALB/cA mice (CLEA Japan, Inc.) at a dose of 50 mg/kg/day. At 0.5, 1, 2, 4 and 6 hours after completion of the oral administration, blood was collected from the facial vein over time, so as to obtain plasma. The concentration of the compound in the obtained plasma was measured by LC-MS/MS, and the oral absorbability of the present compound was evaluated.

[3] = system: H1975-EGFRinsSVD cell line; assay: Antitumor effect confirmation test (in vivo) on subcutaneous transplantation models; set-up: species or system nude mouse (BALB/cAJcl-nu/nu); details: Examples 2, 11 and 12 orally at 25, 25 and 50 mg/kg/day, Days 1-14; Dunnett test P<0.001
Procedure: When the tumor volumes of nude mice having tumor engraftment became on the order of 100 to 200 mm^3, the mice were assigned to groups each involving 6 animals by random stratification such that the average tumor volume was equal among the groups.
The test compound used was the compounds of Examples 2, 11, and 12, and a 0.5% HPMC aqueous solution was used as a control. The compounds of Examples 2, 11 and 12 were orally administered at doses of 25 mg/kg/day, 25 mg/kg/day and 50 mg/kg/day, respectively.
Each test compound or the control was orally administered every day for 14 days (Days 1-14) from the day following the grouping.
To compare the transition of tumor growth over time by the administration of each test compound, a tumor volume (which is also referred to as “TV” below) was measured at a frequency of twice a week over time. […] A body weight change percentage is also referred to as “BWC” below.
BWCn(%)=((body weight on n^th day)−(body weight on grouping day)]/[(body weight on grouping day)×100

EGFR [D770_N771insNPG] = target: T1, EGFR [D770_N771insNPG] (Homo sapiens, UniProt P00533, INS772GNP); assay: Phosphorylation activity inhibitory effect (in vitro), kinase assay at Carna Biosciences; assay type: biochemical; details: ATP near Km
T1 construct: fused on or other part: Probably an N-terminal GST tag (Carna product)
T1 sequence (P00533 with tags, fused parts or gaps INS772GNP): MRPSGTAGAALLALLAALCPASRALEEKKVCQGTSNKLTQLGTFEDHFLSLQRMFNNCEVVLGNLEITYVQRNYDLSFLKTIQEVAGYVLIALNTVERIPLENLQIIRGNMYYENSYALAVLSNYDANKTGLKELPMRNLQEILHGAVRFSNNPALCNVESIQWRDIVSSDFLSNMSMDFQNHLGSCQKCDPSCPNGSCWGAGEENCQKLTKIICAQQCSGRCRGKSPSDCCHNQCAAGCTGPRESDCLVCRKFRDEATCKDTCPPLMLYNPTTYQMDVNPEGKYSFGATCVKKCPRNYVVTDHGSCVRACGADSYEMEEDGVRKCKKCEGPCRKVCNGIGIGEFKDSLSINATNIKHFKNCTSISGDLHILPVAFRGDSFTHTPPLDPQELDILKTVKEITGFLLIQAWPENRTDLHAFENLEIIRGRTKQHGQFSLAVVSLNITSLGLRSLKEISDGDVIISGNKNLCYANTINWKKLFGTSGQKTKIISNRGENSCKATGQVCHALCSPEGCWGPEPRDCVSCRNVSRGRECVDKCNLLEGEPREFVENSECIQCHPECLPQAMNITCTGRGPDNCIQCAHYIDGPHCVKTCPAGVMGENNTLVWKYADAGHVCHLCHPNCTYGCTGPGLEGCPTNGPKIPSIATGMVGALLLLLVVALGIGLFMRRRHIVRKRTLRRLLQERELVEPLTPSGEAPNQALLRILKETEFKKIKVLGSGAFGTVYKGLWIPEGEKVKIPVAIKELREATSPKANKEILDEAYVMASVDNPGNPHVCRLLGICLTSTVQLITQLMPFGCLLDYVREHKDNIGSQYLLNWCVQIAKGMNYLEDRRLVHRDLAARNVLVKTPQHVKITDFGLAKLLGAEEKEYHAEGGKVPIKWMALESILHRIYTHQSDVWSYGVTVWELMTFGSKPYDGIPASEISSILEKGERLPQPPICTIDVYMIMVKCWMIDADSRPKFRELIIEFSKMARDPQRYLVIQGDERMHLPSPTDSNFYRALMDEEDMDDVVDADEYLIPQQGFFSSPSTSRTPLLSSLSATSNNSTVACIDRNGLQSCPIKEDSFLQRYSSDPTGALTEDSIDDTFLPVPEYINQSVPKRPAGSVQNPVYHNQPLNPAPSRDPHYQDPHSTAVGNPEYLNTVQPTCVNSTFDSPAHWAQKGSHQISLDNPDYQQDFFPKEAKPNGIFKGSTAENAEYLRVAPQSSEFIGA
Procedure: The measurement of the in vitro inhibitory activity of a compound against wild-type and mutant EGFR was outsourced to Carna Biosciences, Inc. (Kinase Profiling Book, https://www.carnabio.com/japanese/product/search.cgi?mode=profiling).
Specifically, first, the compound of the present invention was diluted stepwise with dimethyl sulfoxide (DMSO). […] To the reaction solution, Termination Buffer was added, so as to terminate the kinase reaction. Finally, using LabChip™ EZ Reader II (PerkinElmer), an unphosphorylated substrate peptide (S) and a phosphorylated peptide (P) were separated and detected according to microchannel capillary electrophoresis.

Structure (SMILES) | Attenuation of brain concentration relative to the compound of the present invention [1] | Attenuation of oral absorbability relative to the compound of the present invention [2] | Antitumor effect: tumor volume (TV) on Day 15 compared with the control group [3] | IC50 (EGFR [D770_N771insNPG])
C=CC(=O)N1C[C@H](n2nc(C(=O)Nc3ccc(CC(=O)N(C)C)c(C)c3C)c3c(N)ncnc32)C[C@@H]1C [Comparative Example 2, 1-((3R,5S)-1-acryloyl-5-methylpyrrolidin-3-yl)-4-amino-N-(4-(2-(dimethylamino)-2-oxoethyl)-2,3-dimethylphenyl)-1H-pyrazolo[3,4-d]pyrimidine-3-carboxamide] | more than 80 times | more than 4 times | – | –
C=CC(=O)N1C[C@H](n2c(C#CC)c(C(=O)N[C@H](C)c3ccccc3)c3c(N)ncnc32)C[C@@H]1C [Example 2, 7-((3R,5S)-1-acryloyl-5-methylpyrrolidin-3-yl)-4-amino-N—((R)-1-phenylethyl)-6-(prop-1-yn-1-yl)-7H-pyrrolo[2,3-d]pyrimidine-5-carboxamide] | – | – | excellent antitumor effects | –
C=CC(=O)N1C[C@H](n2c(C#CC3CC3)c(C(=O)N[C@H](C)c3ccccc3)c3c(N)ncnc32)C[C@@H]1C [Example 11, 7-((3R,5S)-1-acryloyl-5-methylpyrrolidin-3-yl)-4-amino-6-(cyclopropylethynyl)-N—((R)-1-phenylethyl)-7H-pyrrolo[2,3-d]pyrimidine-5-carboxamide] | – | – | excellent antitumor effects | 0.55 nM
C=CC(=O)N1C[C@H](n2c(C#CC(C)(C)C)c(C(=O)N[C@H](C)c3ccccc3)c3c(N)ncnc32)C[C@@H]1C [Example 12, 7-((3R,5S)-1-acryloyl-5-methylpyrrolidin-3-yl)-4-amino-6-(3,3-dimethylbut-1-yn-1-yl)-N—((R)-1-phenylethyl)-7H-pyrrolo[2,3-d]pyrimidine-5-carboxamide] | – | – | excellent antitumor effects | –
